Test results as given in US12433962B2, “Probes for imaging b-amyloid and inhibition of β-amyloid aggregation” (The Hong Kong University of Science and Technology, priority 2021, dated 2025).

What was measured:
[1] = Emission and AIE properties in solvent mixtures; assay type: physicochemical
Source text: FIG. 2 depicts (A) Normalized absorption spectra of DCTB, DCPH and DNTPH in DMSO solution; (B) Normalized fluorescence (PL) spectra of DCTB, DCPH and DNTPH in aggregates; (C) Plot of the changes in fluorescence intensity with different water fraction (fw, in volume percentage, vol %), where I0 and I are the maximal fluorescence intensity recorded before and after adding water into the THF solution of DCTB. (D) Plot of the changes in fluorescence intensity with different toluene fractions (ft, in volume percentage, vol %), where I0 and I are the maximal fluorescence intensity recorded before and after adding toluene into the DMSO solution of DCPH and DNTPH respectively. [AIE dyes]=10 μM.
DCTB and DCPH were synthesized and their structure-activity relationship was investigated (FIG. 1).
However, to achieve a more obvious emission enhancement with low background signals, the TICT and AIE properties can be further modified. […] DNTPH was non-emissive in aqueous solution, and its NIR fluorescence at 683 nm was continuously intensified until the volume fraction of toluene (ft) […] was increased to about 40-fold (FIG. 2D). In addition, initial weedy fluorescence intensity of DNTPH in aqueous solution and the outstanding emission enhancement behavior in the aggregated state made it an ideal candidate for detecting protein fibrillogenesis, like Aβ aggregates.

[2] = Solubility in solvents and water; assay type: physicochemical
[3] = target: Aβ42 fibril (Homo sapiens, UniProt P05067); assay: Fluorescent response upon binding to Aβ42 fibrils in phosphate buffer; conditions: titrated with Aβ42 fibril in phosphate buffer; dye 1 μM
Description: FIG. 4 depicts determination of the binding constant of DNTPH for Aβ42 aggregates. (A) Plot of the PL intensity as a function of the concentration of DNTPH in the presence of Aβ42 aggregates (3 μM) in PBS solution (pH=7.4); (B)Response time of DNTPH binding to Aβ42 aggregates. […] (D) Ultrahigh S/N ratio of DNTPH toward Aβ42 aggregates compared to the background signals in PBS and that towards BSA.
It was investigated whether DNTPH has a fluorescent response upon binding to Aβ aggregates. When DNTPH was titrated with the Aβ42 fibril in phosphate buffer, a strong and progressive increase (up to about 18-fold) in red fluorescence intensity concomitant was observed, which took ˜30 min to reach a plateau. Without wishing to be bound by theory, it is believed that DNTPH is capable of binding hydrophobic surfaces in aggregated amyloid fibrils with the help of the binding unit, resulting in the decrease of conformational freedom and rotational restriction. […] That is because these three probes show high background signals, which results in low S/N ratio even with a decent fluorescent response to testing objects.

[4] = tested on: PC12 cell; assay: MTT cytotoxicity assay in PC12 cells; assay type: cell-based
Description: FIG. 7 depicts (A) Cytotoxicity towards […] PC-12 cells of Aβ monomer under 24 h and 48 h incubation. (B) Cytotoxicity of Aβ fibrils under 24 h and 48 h incubation. […] (D) Cell viability of different concentrations of DNTPH towards PC-12 cells under 24 h and 48 h incubation.

Sequence of Aβ42 fibril (P05067 672-713 limits assumed): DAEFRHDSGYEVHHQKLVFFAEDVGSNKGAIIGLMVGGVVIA

CCN(CC)c1ccc2cc(C=C(C#N)c3nc4ccccc4s3)c(=O)oc2c1 [DCTB]
emission maximum [1]: 601 nm
AIE effect, fluorescence intensity increase ([1]; THF/water, water fraction (fw) 70%): less than 2 fold
solubility [2]: soluble in THF but aggregated in water

CCN(CC)c1ccc2cc(C=Cc3cc[n+](CCO)cc3)c(=O)oc2c1.[Br-] [DCPH]
emission maximum [1]: 690 nm
PL intensity enhancement in aggregates compared with DMSO solution ([1]; DMSO/toluene mixtures, 99% toluene fraction (ft)): about 2 fold
solubility [2]: more soluble in water and polar solvent

Cc1ccc2c(c1)sc(-c1ccc(N(C)C)cc1)[n+]2C.[Cl-] [ThT, thioflavin T]
increase in fluorescence intensity (fluorescent response) to Aβ42 fibril [3]: 5 fold

Aβ monomer: monomeric amyloid-β peptide
cell death ([4]; 20 μM, 48 h incubation): 50%
cytotoxicity ([4]; 5-20 μM, less than 24 h of exposure): No significant cytotoxicity
